Data from PubChem BioAssay (NCI).
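Following 48 hours of exposure in 96-well plates, responses at five concentrations were used to interpolate endpoints linearly. Definition used: TGI = concentration required for complete inhibition of growth.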 Where a SMILES comes first, the peptide text is derived from it. The star is where a group is joined. Boc = CC(C)(C)OC(=O)*

Columns and labels:
Experiment in all cases: NCI-60 cell line screen, 48 h
[1] = system: SK-MEL-2 melanoma
[2] = system: MDA-MB-231 breast
[3] = system: KM12 colon
[4] = system: SK-MEL-5 melanoma
[5] = system: IGROV1 ovarian
[6] = system: OVCAR-8 ovarian
[7] = system: HCT-116 colon
[8] = system: PC-3 prostate
[9] = system: LOX IMVI melanoma
[10] = system: K-562 leukemia
[11] = system: HCT-15 colon
[12] = system: MALME-3M melanoma
[13] = system: SF-539 CNS
[14] = system: NCI-H23 lung
[15] = system: M14 melanoma
[16] = system: CAKI-1 renal
[17] = system: UO-31 renal
[18] = system: NCI-H460 lung
[19] = system: BT-549 breast
[20] = system: OVCAR-4 ovarian
[21] = system: A498 renal
[22] = system: CCRF-CEM leukemia
[23] = system: COLO 205 colon
[24] = system: TK-10 renal
[25] = system: SR leukemia
[26] = system: SN12C renal
[27] = system: SK-MEL-28 melanoma
[28] = system: MDA-N
[29] = system: U251 CNS
[30] = system: T-47D breast
[31] = system: HCC-2998 colon
[32] = system: SF-268 CNS
[33] = system: MOLT-4 leukemia
[34] = system: SNB-19 CNS
[35] = system: MDA-MB-435
[36] = system: HS 578T breast
[37] = system: RXF 393 renal
[38] = system: OVCAR-3 ovarian
[39] = system: ACHN renal
[40] = system: MCF7 breast
[41] = system: A549 NSCLC
[42] = system: UACC-257 melanoma
[43] = system: SNB-75 CNS
[44] = system: UACC-62 melanoma
[45] = system: EKVX NSCLC
[46] = system: OVCAR-5 ovarian
[47] = system: NCI-H226 lung
[48] = system: 786-0 renal
[49] = system: HL-60(TB) leukemia
[50] = system: HOP-62 NSCLC
[51] = system: HT29 colon
[52] = system: RPMI-8226 leukemia
[53] = system: SF-295 CNS
[54] = system: SW-620 colon
[55] = system: DU-145 prostate
[56] = system: HOP-92 NSCLC
[57] = system: NCI-H522 lung
[58] = system: SK-OV-3 ovarian

## Cc1ncc([N+](=O)[O-])n1CCNC(=O)CCCn1ccnc1[N+](=O)[O-]
[1]
  TGI: > 100 µM
[2]
  TGI: > 100 µM
[3]
  TGI: > 100 µM
[4]
  TGI: > 100 µM
[5]
  TGI: > 100 µM
[6]
  TGI: > 100 µM
[7]
  TGI: > 100 µM
[8]
  TGI: > 100 µM
[9]
  TGI: > 100 µM
[10]
  TGI: > 100 µM
[11]
  TGI: > 100 µM
[12]
  TGI: > 100 µM
[13]
  TGI: > 100 µM
[14]
  TGI: > 100 µM
[15]
  TGI: > 100 µM
[16]
  TGI: > 100 µM
[17]
  TGI: > 100 µM
[18]
  TGI: > 100 µM
[19]
  TGI: > 100 µM
[20]
  TGI: > 100 µM
[21]
  TGI: > 100 µM
[22]
  TGI: > 100 µM
[23]
  TGI: > 100 µM
[24]
  TGI: > 100 µM
[25]
  TGI: > 100 µM
[26]
  TGI: > 100 µM
[27]
  TGI: > 100 µM
[28]
  TGI: > 100 µM
[29]
  TGI: > 100 µM
[30]
  TGI: > 100 µM
[31]
  TGI: > 100 µM
[32]
  TGI: > 100 µM
[33]
  TGI: > 100 µM
[34]
  TGI: > 100 µM
[35]
  TGI: > 100 µM
[36]
  TGI: > 100 µM
[37]
  TGI: > 100 µM
[38]
  TGI: > 100 µM
[39]
  TGI: > 100 µM
[40]
  TGI: > 100 µM
[41]
  TGI: > 100 µM
[42]
  TGI: > 100 µM
[43]
  TGI: > 100 µM
[44]
  TGI: > 100 µM
[45]
  TGI: > 100 µM
[46]
  TGI: > 100 µM
[47]
  TGI: > 100 µM
[48]
  TGI: > 100 µM
[49]
  TGI: > 100 µM
[50]
  TGI: > 100 µM
[51]
  TGI: > 100 µM
[52]
  TGI: > 100 µM
[53]
  TGI: > 100 µM
[54]
  TGI: > 100 µM
[55]
  TGI: > 100 µM

## O=c1cc(-c2ccccc2)oc2cc(Oc3nnnn3-c3ccccc3)ccc12
[1]
  TGI: 97.3 µM
[2]
  TGI: > 100 µM
[3]
  TGI: > 100 µM
[4]
  TGI: 42.4 µM
[5]
  TGI: > 100 µM
[6]
  TGI: > 100 µM
[7]
  TGI: > 100 µM
[8]
  TGI: > 100 µM
[9]
  TGI: > 100 µM
[10]
  TGI: > 100 µM
[11]
  TGI: > 100 µM
[12]
  TGI: > 100 µM
[13]
  TGI: 85.4 µM
[14]
  TGI: > 100 µM
[15]
  TGI: > 100 µM
[16]
  TGI: 20.4 µM
[17]
  TGI: 33.1 µM
[56]
  TGI: 9.17 µM
[18]
  TGI: > 100 µM
[19]
  TGI: 52.1 µM
[20]
  TGI: 70.9 µM
[21]
  TGI: 79.6 µM
[22]
  TGI: > 100 µM
[23]
  TGI: > 100 µM
[24]
  TGI: > 100 µM
[25]
  TGI: > 100 µM
[26]
  TGI: > 100 µM
[27]
  TGI: > 100 µM
[28]
  TGI: > 100 µM
[29]
  TGI: 41.4 µM
[30]
  TGI: 79.7 µM
[31]
  TGI: > 100 µM
[32]
  TGI: 52.2 µM
[33]
  TGI: > 100 µM
[34]
  TGI: > 100 µM
[35]
  TGI: 46 µM
[36]
  TGI: 89.5 µM
[38]
  TGI: > 100 µM
[57]
  TGI: > 100 µM
[39]
  TGI: 13.9 µM
[40]
  TGI: 37.8 µM
[41]
  TGI: > 100 µM
[42]
  TGI: 90.9 µM
[44]
  TGI: > 100 µM
[45]
  TGI: > 100 µM
[58]
  TGI: > 100 µM
[47]
  TGI: > 100 µM
[48]
  TGI: > 100 µM
[49]
  TGI: > 100 µM
[50]
  TGI: > 100 µM
[51]
  TGI: > 100 µM
[52]
  TGI: > 100 µM
[53]
  TGI: > 100 µM
[54]
  TGI: > 100 µM
[55]
  TGI: 94.1 µM

## CC(C)(C)OC(=O)NC(Cc1ccc(O)cc1)C(=O)NC(CCCCN)C(=O)O (stereo not drawn) (Boc-Tyr-Lys-OH; configuration not given here)
[1]
  TGI: 35.1 µM
[2]
  TGI: 61.8 µM
[4]
  TGI: > 100 µM
[5]
  TGI: 37.1 µM
[6]
  TGI: > 100 µM
[7]
  TGI: 40.9 µM
[8]
  TGI: > 100 µM
[9]
  TGI: 28.2 µM
[10]
  TGI: > 100 µM
[12]
  TGI: 76.6 µM
[14]
  TGI: 48.6 µM
[15]
  TGI: 56 µM
[17]
  TGI: 54 µM
[18]
  TGI: 66.2 µM
[19]
  TGI: 80.5 µM
[20]
  TGI: 48.1 µM
[21]
  TGI: 92.4 µM
[22]
  TGI: 92.7 µM
[24]
  TGI: > 100 µM
[25]
  TGI: 77.3 µM
[26]
  TGI: 42.3 µM
[27]
  TGI: 56.1 µM
[28]
  TGI: > 100 µM
[29]
  TGI: 43.5 µM
[30]
  TGI: 53.1 µM
[31]
  TGI: 65.3 µM
[32]
  TGI: > 100 µM
[33]
  TGI: 94.7 µM
[34]
  TGI: 53.2 µM
[35]
  TGI: > 100 µM
[38]
  TGI: 66.3 µM
[57]
  TGI: 26.5 µM
[39]
  TGI: 65.1 µM
[40]
  TGI: > 100 µM
[41]
  TGI: > 100 µM
[42]
  TGI: 83.5 µM
[43]
  TGI: 77 µM
[44]
  TGI: 31.5 µM
[46]
  TGI: 84.9 µM
[47]
  TGI: > 100 µM
[48]
  TGI: > 100 µM
[49]
  TGI: 52.8 µM
[50]
  TGI: 39 µM
[51]
  TGI: > 100 µM
[52]
  TGI: 84.5 µM
[54]
  TGI: > 100 µM
[55]
  TGI: 80.3 µM
